Reference: ChEMBL document CHEMBL4673225, “Highly Selective PTK2 Proteolysis Targeting Chimeras to Probe Focal Adhesion Kinase Scaffolding Functions” (J Med Chem, 2019)
The source made the active and inactive calls. The calls are words filed in the database; no cut-off is given here.

What was measured:
[1] = test system: SNU-423; assay: cells; settings: Homo sapiens, SNU-423, 144 h, read-out: pIC50 (converted)
Description: Antiproliferative activity against human SNU-423 cells incubated for 6 days by CellTiter-Glo luminescent cell viability assay

[2] = target: T1, Focal adhesion kinase 1 (Homo sapiens, UniProt Q05397); assay: Inhibition of human PTK2 (411-689 residues) expressed in Hi-5 cells
Target sequence in this assay (Q05397 whole entry, the tested form may be a part): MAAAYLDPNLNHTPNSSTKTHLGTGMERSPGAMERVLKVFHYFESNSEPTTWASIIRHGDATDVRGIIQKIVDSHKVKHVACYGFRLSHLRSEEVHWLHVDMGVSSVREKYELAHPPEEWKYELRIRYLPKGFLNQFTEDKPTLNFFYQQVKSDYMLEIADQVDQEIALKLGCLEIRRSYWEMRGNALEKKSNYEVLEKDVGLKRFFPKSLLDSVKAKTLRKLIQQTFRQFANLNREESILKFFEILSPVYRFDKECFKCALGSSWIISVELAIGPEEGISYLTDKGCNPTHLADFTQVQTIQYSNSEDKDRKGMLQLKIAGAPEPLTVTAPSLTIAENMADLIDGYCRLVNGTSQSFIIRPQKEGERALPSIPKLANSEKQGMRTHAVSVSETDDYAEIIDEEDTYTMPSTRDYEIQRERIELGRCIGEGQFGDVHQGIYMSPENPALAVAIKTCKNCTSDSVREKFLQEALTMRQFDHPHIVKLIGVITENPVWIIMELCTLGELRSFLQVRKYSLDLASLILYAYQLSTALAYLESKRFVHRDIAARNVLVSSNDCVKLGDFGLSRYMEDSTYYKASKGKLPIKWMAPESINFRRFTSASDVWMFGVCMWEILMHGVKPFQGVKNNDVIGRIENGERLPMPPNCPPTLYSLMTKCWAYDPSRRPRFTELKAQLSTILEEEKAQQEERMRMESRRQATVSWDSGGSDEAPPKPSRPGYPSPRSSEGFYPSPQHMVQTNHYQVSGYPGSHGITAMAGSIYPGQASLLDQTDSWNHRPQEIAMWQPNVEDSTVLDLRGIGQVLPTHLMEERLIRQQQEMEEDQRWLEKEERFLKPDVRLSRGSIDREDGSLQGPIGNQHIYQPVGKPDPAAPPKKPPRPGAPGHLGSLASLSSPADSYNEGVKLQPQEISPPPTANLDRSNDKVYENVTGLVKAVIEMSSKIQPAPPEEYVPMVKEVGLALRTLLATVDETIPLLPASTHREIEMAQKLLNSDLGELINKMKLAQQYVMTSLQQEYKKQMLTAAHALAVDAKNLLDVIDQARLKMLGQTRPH

[3] = Stability in EMEM cell assay buffer containing 10% FCS; assay type: physicochemical; settings: cattle
[4] = test system: SNU-387; assay: cells; settings: Homo sapiens, SNU-387, 144 h, read-out: pIC50 (converted)
Description: Antiproliferative activity against human SNU-387 cells incubated for 6 days by CellTiter-Glo luminescent cell viability assay

[5] = test system: SNU-423; assay: Antiproliferative activity against human SNU-423 cells incubated for 7 to 14 days by methylene blue dye based anchorage independent growth assay; assay type: functional, cell-based; settings: time 7-14 day
[6] = target: Retinal rod rhodopsin-sensitive cGMP 3',5'-cyclic phosphodiesterase subunit delta (Homo sapiens) (UniProt O43924); assay: Induction of PDE6D degradation in human A549 cells at 3 uM incubated for 18 hrs by mass spectrometry based total proteome analysis; assay type: cell-based
Sequence of Retinal rod rhodopsin-sensitive cGMP 3',5'-cyclic phosphodiesterase subunit delta (Homo sapiens) (O43924 whole entry): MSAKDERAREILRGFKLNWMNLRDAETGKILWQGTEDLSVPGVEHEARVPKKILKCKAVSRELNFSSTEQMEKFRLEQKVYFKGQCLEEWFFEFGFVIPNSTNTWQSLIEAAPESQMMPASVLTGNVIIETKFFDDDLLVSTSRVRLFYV

[7] = Permeability in human Caco-2 cells; assay type: ADME, cell-based
[8] = test system: C32; assay: Antiproliferative activity against C32 in human […] cells at 3 uM incubated for 21 days; assay type: functional, cell-based; settings: time 21.0 day
[9] = test system: SNU-398; assay: cells; settings: Homo sapiens, SNU-398, 144 h, read-out: pIC50 (converted)
Description: Antiproliferative activity against human SNU-398 cells incubated for 6 days by CellTiter-Glo luminescent cell viability assay

[10] = target: Retinal rod rhodopsin-sensitive cGMP 3',5'-cyclic phosphodiesterase subunit delta (Homo sapiens) (UniProt O43924); assay: Induction of PDE6D degradation in human A549 cells at 100 nM to 10000 nM incubated for 18 hrs by immunoblot analysis based protein capillary electrophoresis; assay type: cell-based
[11] = target: T2, Protein cereblon/Focal adhesion kinase 1 (Homo sapiens, UniProt Q05397+Q96SW2); assay: Protac activity at CRBN/PTK2 in human SNU-398 cells assessed as induction of PTK2 degradation incubated for 18 hrs by protein capillary electrophoresis method; assay type: cell-based
Target sequence in this assay (Q05397 whole entry): as the sequence (Q05397 whole entry, the tested form may be a part) above
Target sequence in this assay (Q96SW2 whole entry): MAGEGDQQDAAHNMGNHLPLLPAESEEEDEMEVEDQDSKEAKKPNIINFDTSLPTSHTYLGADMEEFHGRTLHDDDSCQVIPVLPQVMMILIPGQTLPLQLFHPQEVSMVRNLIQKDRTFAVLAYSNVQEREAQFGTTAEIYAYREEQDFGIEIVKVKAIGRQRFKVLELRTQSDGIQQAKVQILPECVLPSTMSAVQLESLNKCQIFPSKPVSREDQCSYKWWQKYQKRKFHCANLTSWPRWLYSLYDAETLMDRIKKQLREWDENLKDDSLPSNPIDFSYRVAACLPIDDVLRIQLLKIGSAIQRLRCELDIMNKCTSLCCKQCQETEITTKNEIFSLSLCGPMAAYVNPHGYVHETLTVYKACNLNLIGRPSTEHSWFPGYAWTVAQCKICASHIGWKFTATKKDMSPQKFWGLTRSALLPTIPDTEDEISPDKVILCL

[12] = target: T2, Protein cereblon/Focal adhesion kinase 1; assay: Protac activity at CRBN/PTK2 in human HLE cells assessed as induction of PTK2 degradation incubated for 18 hrs by protein capillary electrophoresis method relative to control; assay type: cell-based
Target sequence in this assay (Q05397 2-1052 limits assumed): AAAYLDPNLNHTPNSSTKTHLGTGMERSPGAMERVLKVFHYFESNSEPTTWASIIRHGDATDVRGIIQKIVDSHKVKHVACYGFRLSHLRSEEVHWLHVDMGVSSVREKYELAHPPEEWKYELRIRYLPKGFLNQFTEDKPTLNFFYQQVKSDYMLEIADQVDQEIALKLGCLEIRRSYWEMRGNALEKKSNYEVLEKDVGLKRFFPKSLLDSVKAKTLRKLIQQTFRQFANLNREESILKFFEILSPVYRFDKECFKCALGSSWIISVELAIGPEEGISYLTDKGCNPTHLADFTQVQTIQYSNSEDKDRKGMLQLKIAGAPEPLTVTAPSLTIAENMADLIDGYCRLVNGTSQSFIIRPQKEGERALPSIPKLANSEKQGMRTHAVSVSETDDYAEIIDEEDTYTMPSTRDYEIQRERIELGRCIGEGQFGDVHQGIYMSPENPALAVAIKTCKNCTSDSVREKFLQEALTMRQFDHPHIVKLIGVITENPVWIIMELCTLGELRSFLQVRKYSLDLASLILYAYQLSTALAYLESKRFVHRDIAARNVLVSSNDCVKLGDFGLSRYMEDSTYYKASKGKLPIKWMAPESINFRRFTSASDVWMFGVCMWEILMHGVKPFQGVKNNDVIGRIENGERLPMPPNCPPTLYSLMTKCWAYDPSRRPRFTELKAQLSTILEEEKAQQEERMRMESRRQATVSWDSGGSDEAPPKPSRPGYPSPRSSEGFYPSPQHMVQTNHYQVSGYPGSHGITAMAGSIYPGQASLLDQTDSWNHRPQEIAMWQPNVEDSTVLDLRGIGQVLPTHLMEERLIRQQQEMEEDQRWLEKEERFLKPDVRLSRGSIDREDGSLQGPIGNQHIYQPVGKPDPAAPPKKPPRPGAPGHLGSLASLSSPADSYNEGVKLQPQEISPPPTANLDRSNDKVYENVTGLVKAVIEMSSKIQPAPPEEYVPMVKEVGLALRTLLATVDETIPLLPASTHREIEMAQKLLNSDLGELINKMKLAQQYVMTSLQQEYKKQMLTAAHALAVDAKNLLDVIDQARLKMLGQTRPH
Target sequence in this assay (Q96SW2 whole entry partner): as the sequence (Q96SW2 whole entry) above

[13] = test system: HuCCT-1; assay: cells; settings: Homo sapiens, HuCCT-1, 144 h, read-out: pIC50 (converted)
Description: Antiproliferative activity against human HuCCT-1 cells incubated for 6 days by CellTiter-Glo luminescent cell viability assay

[14] = test system: HLF1; assay: Antiproliferative activity against human HLF1 cells incubated for 7 to 14 days by methylene blue dye based anchorage independent growth assay; assay type: functional, cell-based; settings: time 7-14 day
[15] = test system: HSC-3; assay: Antiproliferative activity against HSC-3 in human […] cells at 3 uM incubated for 21 days; assay type: functional, cell-based; settings: time 21.0 day
[16] = test system: HuCCT-1; assay: Antiproliferative activity against human HuCCT-1 cells incubated for 7 to 14 days by methylene blue dye based anchorage independent growth assay; assay type: functional, cell-based; settings: time 7-14 day
[17] = test system: HepG2; assay: Antiproliferative activity against human HepG2 cells incubated for 7 to 14 days by methylene blue dye based anchorage independent growth assay; assay type: functional, cell-based; settings: time 7-14 day
[18] = test system: HLE; assay: cells; settings: Homo sapiens, 144 h, read-out: pIC50 (converted)
Description: Antiproliferative activity against human HLE cells incubated for 6 days by CellTiter-Glo luminescent cell viability assay

[19] = test system: HLE; assay: Antiproliferative activity against human HLE cells incubated for 7 to 14 days by methylene blue dye based anchorage independent growth assay; assay type: functional, cell-based; settings: time 7-14 day
[20] = target: T2, Protein cereblon/Focal adhesion kinase 1; assay: Protac activity at CRBN/PTK2 in human SNU-398 cells assessed as induction of PTK2 degradation incubated for 18 hrs by protein capillary electrophoresis method relative to control; assay type: cell-based
Target sequence in this assay (Q05397 2-1052 limits assumed): as the sequence (Q05397 2-1052 limits assumed) above
Target sequence in this assay (Q96SW2 whole entry partner): as the sequence (Q96SW2 whole entry) above

[21] = cells; settings: Homo sapiens, HLF1, 144 h, read-out: pIC50 (converted)
Description: Antiproliferative activity against human HLF1 cells incubated for 6 days by CellTiter-Glo luminescent cell viability assay

[22] = test system: Huh-7; assay: cells; settings: Homo sapiens, Huh-7, 144 h, read-out: pIC50 (converted)
Description: Antiproliferative activity against human Huh-7 cells incubated for 6 days by CellTiter-Glo luminescent cell viability assay

[23] = test system: SNU-387; assay: Antiproliferative activity against human SNU-387 cells incubated for 7 to 14 days by methylene blue dye based anchorage independent growth assay; assay type: functional, cell-based; settings: time 7-14 day
[24] = test system: A549; assay: Induction of general kinase degradation in human A549 cells at 3 uM incubated for 18 hrs by mass spectrometry based total proteome analysis; assay type: functional, cell-based
[25] = target: T2, Protein cereblon/Focal adhesion kinase 1; assay: Protac activity at CRBN/PTK2 in human SNU-423 cells assessed as induction of PTK2 degradation incubated for 18 hrs by protein capillary electrophoresis method; assay type: cell-based
Target sequence in this assay (Q05397 whole entry): as the sequence (Q05397 whole entry, the tested form may be a part) above
Target sequence in this assay (Q96SW2 whole entry): as the sequence (Q96SW2 whole entry) above

[26] = cells; settings: Homo sapiens, HuH-1, 144 h, read-out: pIC50 (converted)
Description: Antiproliferative activity against human HuH-1 cells incubated for 6 days by CellTiter-Glo luminescent cell viability assay

[27] = target: T2, Protein cereblon/Focal adhesion kinase 1; assay: Protac activity at CRBN/PTK2 in human SNU-387 cells assessed as induction of PTK2 degradation incubated for 18 hrs by protein capillary electrophoresis method relative to control; assay type: cell-based
Target sequence in this assay (Q05397 2-1052 limits assumed): as the sequence (Q05397 2-1052 limits assumed) above
Target sequence in this assay (Q96SW2 whole entry partner): as the sequence (Q96SW2 whole entry) above

[28] = Fraction unbound in 10% FCS; assay type: ADME, cell-free, Bos taurus; settings: cattle, 10% fetal calf serum (FCS)
[29] = cells; settings: Homo sapiens, Hep3B, 144 h, read-out: pIC50 (converted)
Description: Antiproliferative activity against human Hep3B2.1-7 cells incubated for 6 days by CellTiter-Glo luminescent cell viability assay

[30] = test system: SK-HEP1; assay: cells; settings: Homo sapiens, SK-HEP1, 144 h, read-out: pIC50 (converted)
Description: Antiproliferative activity against human SK-HEP1 cells incubated for 6 days by CellTiter-Glo luminescent cell viability assay

[31] = test system: HuH-1; assay: Antiproliferative activity against human HuH-1 cells incubated for 7 to 14 days by methylene blue dye based anchorage independent growth assay; assay type: functional, cell-based; settings: time 7-14 day
[32] = test system: A549; assay: Antiproliferative activity against C32 in human A549 cells at 3 uM incubated for 21 day; assay type: functional, cell-based
[33] = test system: CFPAC-1; assay: Antiproliferative activity against C32 in human CFPAC-1 cells at 3 uM incubated for 21 day; assay type: functional, cell-based
[34] = test system: Huh-7; assay: Antiproliferative activity against human Huh-7 cells incubated for 7 to 14 days by methylene blue dye based anchorage independent growth assay; assay type: functional, cell-based; settings: time 7-14 day
[35] = test system: HepG2; assay: cells; settings: Homo sapiens, HepG2, 144 h, read-out: pIC50 (converted)
Description: Antiproliferative activity against human HepG2 cells incubated for 6 days by CellTiter-Glo luminescent cell viability assay

[36] = target: T2, Protein cereblon/Focal adhesion kinase 1; assay: Protac activity at CRBN/PTK2 in human HuCCT-1 cells assessed as induction of PTK2 degradation incubated for 18 hrs by protein capillary electrophoresis method; assay type: cell-based
Target sequence in this assay (Q05397 whole entry): as the sequence (Q05397 whole entry, the tested form may be a part) above
Target sequence in this assay (Q96SW2 whole entry): as the sequence (Q96SW2 whole entry) above

[37] = test system: SNU-398; assay: Antiproliferative activity against human SNU-398 cells incubated for 7 to 14 days by methylene blue dye based anchorage independent growth assay; assay type: functional, cell-based; settings: time 7-14 day
[38] = test system: SK-HEP1; assay: Antiproliferative activity against human SK-HEP1 cells incubated for 7 to 14 days by methylene blue dye based anchorage independent growth assay; assay type: functional, cell-based; settings: time 7-14 day
[39] = test system: Hep3B; assay: Antiproliferative activity against human Hep3B2.1-7 cells incubated for 7 to 14 days by methylene blue dye based anchorage independent growth assay; assay type: functional, cell-based; settings: time 7-14 day
[40] = target: T3, von Hippel-Lindau disease tumor suppressor/Focal adhesion kinase 1 (Homo sapiens, UniProt Q05397+P40337); assay: Protac activity at VHL/PTK2 in human SNU-398 cells assessed as induction of PTK2 degradation incubated for 18 hrs by protein capillary electrophoresis method; assay type: cell-based
Target sequence in this assay (Q05397 whole entry): as the sequence (Q05397 whole entry, the tested form may be a part) above
Target sequence in this assay (P40337 whole entry): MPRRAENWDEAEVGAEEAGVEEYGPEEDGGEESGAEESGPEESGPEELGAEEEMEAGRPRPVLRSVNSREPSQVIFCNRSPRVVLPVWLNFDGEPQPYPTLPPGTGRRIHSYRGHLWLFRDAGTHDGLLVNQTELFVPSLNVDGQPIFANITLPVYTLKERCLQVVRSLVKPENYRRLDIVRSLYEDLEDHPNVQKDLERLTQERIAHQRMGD

[41] = target: T1, Focal adhesion kinase 1; assay: Inhibition of PTK2 (unknown origin) at 1 uM relative to control
Target sequence in this assay (Q05397 2-1052 limits assumed): as the sequence (Q05397 2-1052 limits assumed) above

[42] = target: T3, von Hippel-Lindau disease tumor suppressor/Focal adhesion kinase 1; assay: Protac activity at VHL/PTK2 in human HepG2 cells assessed as induction of PTK2 degradation incubated for 18 hrs by protein capillary electrophoresis method relative to control; assay type: cell-based
Target sequence in this assay (P40337 whole entry partner): as the sequence (P40337 whole entry) above
Target sequence in this assay (Q05397 2-1052 limits assumed): as the sequence (Q05397 2-1052 limits assumed) above

[43] = target: T3, von Hippel-Lindau disease tumor suppressor/Focal adhesion kinase 1; assay: Protac activity at VHL/PTK2 in human SNU-387 cells assessed as induction of PTK2 degradation incubated for 18 hrs by protein capillary electrophoresis method relative to control; assay type: cell-based
Target sequence in this assay (P40337 whole entry partner): as the sequence (P40337 whole entry) above
Target sequence in this assay (Q05397 2-1052 limits assumed): as the sequence (Q05397 2-1052 limits assumed) above

IC50 [1] [µM] | IC50 [2] [µM] | Stabilty [3] | IC50 [4] [µM] | Activity [6] | permeability [7] | IC50 [9] [µM] | Activity [10] | IC50 [13] [µM] | IC50 [18] [µM] | IC50 [21] [µM] | IC50 [22] [µM] | SMILES | Activity [5] | Activity [8] | Activity [14] | Activity [15] | Activity [16] | Activity [17] | Activity [19] | Activity [23] | other results
20 | 0.018 | Unstable | > 25.1 | inactive | Impermeable | > 25.1 | inactive | > 25.1 | > 25.1 | > 25.1 | > 25.1 | COc1cc(C(=O)NCCOCCOCCOCCC(=O)Nc2cccc3c2C(=O)N(C2CCC(=O)NC2=O)C3=O)ccc1Nc1ncc(C(F)(F)F)c(Oc2cccc3c2C(=O)CC3)n1 (stereo unspecified) | inactive | inactive | inactive | inactive | inactive | inactive | inactive | inactive | pDC50 [11]: 8.5; Emax [12]: 79%; Emax [20]: 95%; Activity [24]: inactive; pDC50 [25]: 7.9; IC50 [26]: 25.1 µM; Emax [27]: 90%; fraction unbound [28]: 0.04; IC50 [29]: 25.1 µM; IC50 [30]: 1.58 µM; Activity [31]: inactive; Activity [32]: inactive; Activity [33]: inactive; Activity [34]: inactive; IC50 [35]: > 25.1 µM; pDC50 [36]: 7.9; Activity [37]: inactive; Activity [38]: inactive; Activity [39]: inactive
6.31 | 0.019 | Stable | 5.01 | Active | Impermeable | 7.94 | Active | 6.31 | 10 | > 25.1 | 3.98 | COc1cc(C(=O)NCCOCCOCCOCC(=O)N[C@H](C(=O)N2C[C@H](O)C[C@H]2C(=O)NCc2ccc(-c3scnc3C)cc2)C(C)(C)C)ccc1Nc1ncc(C(F)(F)F)c(Oc2cccc3c2C(=O)CC3)n1 | inactive | inactive | inactive | inactive | inactive | inactive | inactive | inactive | pDC50 [40]: 8; inhibition [41]: > 90%; Emax [42]: 65%; Activity [24]: inactive; IC50 [26]: 20 µM; fraction unbound [28]: 0.113; IC50 [29]: 6.31 µM; IC50 [30]: 7.94 µM; Activity [31]: inactive; Activity [32]: inactive; Activity [33]: inactive; Activity [34]: inactive; IC50 [35]: > 25.1 µM; Emax [43]: 98%; Activity [37]: inactive; Activity [38]: inactive; Activity [39]: inactive
